Reference: PMC5369539 (Chemical Science, 2016)
Bridge positions count the residues as written; N and C are the ends. Square brackets hold non-standard residues; d marks the D form. Peptide text beside a SMILES is read from it. * marks the point of attachment. X1 = CC[C@H](C)CCCCC(=O)*; Dab = NCC[C@H](N)C(=O)O

Tests used:
[1] = system: S. aureus (ATCC6538); assay: Minimum inhibitory concentration; format: cell-based; settings: text summary of Table S1
[2] = system: E. faecalis (OG1X); assay: Minimum inhibitory concentration; format: cell-based; settings: text summary of Table S1

Row | SMILES | activity against S. aureus (in words) [1] | activity against E. faecalis (in words) [2]
1 | CCCCCCCCCC(=O)N[C@@H](Cc1c[nH]c2ccccc12)C(=O)N[C@H](CC(N)=O)C(=O)N[C@@H](CC(=O)O)C(=O)N[C@@H]1C(=O)NCC(=O)N[C@@H](CCCN)C(=O)N[C@@H](CC(=O)O)C(=O)N[C@H](C)C(=O)N[C@@H](CC(=O)O)C(=O)NCC(=O)N[C@H](CO)C(=O)N[C@@H]([C@H](C)CC(=O)O)C(=O)N[C@@H](CC(=O)c2ccccc2N)C(=O)O[C@@H]1C [daptomycin] | appreciable activity | tolerant
2 | CC[C@H](C)CCCCC(=O)N[C@@H](CCN)C(=O)N[C@H](C(=O)N[C@@H](CCN)C(=O)N[C@H]1CCNC(=O)[C@H]([C@@H](C)O)NC(=O)[C@H](CCN)NC(=O)[C@H](CCN)NC(=O)[C@H](CC(C)C)NC(=O)[C@@H](Cc2ccccc2)NC(=O)[C@H](CCN)NC1=O)[C@@H](C)O [polymyxin B] (X1-[Dab]T[Dab][Dab][Dab][dF]L[Dab][Dab]T; lactam 4-C (inferred); N-terminus assumed) |  | tolerant
